Laboratory results published in patent publication US20150105252A1, “SUBSTITUTED PYRAZOLES AS HERBICIDES” (E I DU PONT DE NEMOURS AND COMPANY, priority 2013, published 2015).

How the values were obtained:
[1] = system: crabgrass, large; assay: Test A preemergence; format: in vivo, Digitaria sanguinalis; conditions: preemergence
Procedure, shortened: (§1)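 Seeds were sown in a loam soil–sand blend and given a directed soil spray preemergence; postemergence plants at 2–10 cm, one- to two-leaf stage, were sprayed with compound in non-phytotoxic solvent with surfactant. After about 10 days in a greenhouse, injury was visually rated against untreated controls (0 = no effect, 100 = complete control).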

[2] = system: ducksalad; assay: Test B flood; format: in vivo, Heteranthera limosa; conditions: 250 g ai/ha, visual rating on 0 to 100 scale (0 no effect, 100 complete control), 13 to 15 days
Procedure, shortened: (§2)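 2-leaf plants; pots flooded 3 cm over soil; compound added to paddy water, depth kept constant. Greenhouse 13–15 d. Visual rating vs controls, 0–100 scale (100 = complete control); dash = no result.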

[3] = system: blackgrass; assay: Test C preemergence; format: in vivo, Alopecurus myosuroides; conditions: preemergence
Procedure, shortened: (§3)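 Scores of 0 (no effect) to 100 (complete control) were assigned by eye after 13–15 days, comparing treated pots with controls. Soil-applied (preemergence) treatments went onto seeds in loam and sand; foliar (postemergence) treatments onto 1- to 4-leaf plants in peat medium.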

[4] = system: corn; assay: Test C preemergence; format: in vivo, Zea mays; conditions: preemergence
Procedure, shortened: as §3

[5] = system: rice; assay: Test B flood; format: in vivo, Oryza sativa; conditions: 250 g ai/ha, visual rating on 0 to 100 scale (0 no effect, 100 complete control), 13 to 15 days
Procedure, shortened: as §2

[6] = system: pigweed; assay: Test A postemergence; format: in vivo, Amaranthus retroflexus
Procedure, shortened: as §1

[7] = system: pigweed; assay: Test A preemergence; format: in vivo, Amaranthus retroflexus; conditions: preemergence
Procedure, shortened: as §1

[8] = system: corn; assay: Test A postemergence; format: in vivo, Zea mays
Procedure, shortened: as §1

[9] = system: ryegrass, Italian; assay: Test C preemergence; format: in vivo, Lolium multiflorum; conditions: preemergence
Procedure, shortened: as §3

[10] = system: wheat; assay: Test A postemergence; format: in vivo, Triticum aestivum
Procedure, shortened: as §1

[11] = system: morningglory; assay: Test A postemergence; format: in vivo, Ipomoea spp.
Procedure, shortened: as §1

[12] = system: waterhemp; assay: Test C preemergence; format: in vivo, Amaranthus rudis; conditions: preemergence
Procedure, shortened: as §3

[13] = system: morningglory; assay: Test A preemergence; format: in vivo, Ipomoea spp.; conditions: preemergence
Procedure, shortened: as §1

[14] = system: ragweed; assay: Test C preemergence; format: in vivo, Ambrosia elation; conditions: preemergence
Procedure, shortened: as §3

[15] = system: foxtail, giant; assay: Test C preemergence; format: in vivo, Setaria faberii; conditions: preemergence
Procedure, shortened: as §3

[16] = 125 g ai/ha, visual injury approx. 10 days after treatment
[17] = 500 g ai/ha, visual injury after approx. 10 days, 0 to 100 scale (0 no effect, 100 complete control)
[18] = 31 g ai/ha, visual rating, scale 0 to 100 (0 no effect, 100 complete control), 13 to 15 days
[19] = 62 g ai/ha, scale 0 to 100 (0 no effect, 100 complete control), 13 to 15 days
[20] = 125 g ai/ha, 13 to 15 days, scale 0 to 100, 0 = no effect, 100 = complete control
[21] = 250 g ai/ha, scale 0 to 100, 0 is no effect, 100 is complete control
[22] = Postemergence, 500 g ai/ha, 0 to 100 scale (0 no effect, 100 complete control)
[23] = postemergence, 125 g ai/ha, about 10 days, visual rating on 0 to 100 scale (0 no effect, 100 complete control)

## CCCNC(=O)c1cc(CCCl)n(Cc2ccnc(C(F)(F)F)c2)n1 [Compound 145]
[1]; [16]
  Crabgrass, Large plant response rating (0 to 100 scale): 100
[1]; [17]
  Crabgrass, Large plant response rating: 100
[2]
  Plant response rating, Ducksalad: 100
[3]; [18]
  Blackgrass plant response rating: 70
[3]; [19]
  Blackgrass plant response rating: 85
[3]; [20]
  Plant response rating, Blackgrass: 90
[3]; [21]
  Blackgrass plant response rating: 90
[4]; [18]
  Corn plant response rating: 10
[4]; [19]
  Corn plant response rating: 50
[4]; [20]
  Plant response rating, Corn: 80
[4]; [21]
  Corn plant response rating: 90
[5]
  Plant response rating, Rice: 25
[6]; [22]
  Pigweed plant response rating: 100
[6]; [23]
  Pigweed plant response rating: 100
[7]; [16]
  Pigweed plant response rating (0 to 100 scale): 100
[7]; [17]
  Pigweed plant response rating: 100
[8]; [22]
  Corn plant response rating: 90
[8]; [23]
  Corn plant response rating: 60
[9]; [18]
  Ryegrass, Italian plant response rating: 5
[9]; [19]
  Ryegrass, Italian plant response rating: 45
[9]; [20]
  Plant response rating, Ryegrass, Italian: 85
[9]; [21]
  Ryegrass, Italian plant response rating: 90
[10]; [22]
  Wheat plant response rating: 80
[10]; [23]
  Wheat plant response rating: 50
[11]; [22]
  Morningglory plant response rating: 100
[11]; [23]
  Morningglory plant response rating: 80
[12]; [18]
  Waterhemp plant response rating: 98
[12]; [19]
  Waterhemp plant response rating: 100
[12]; [20]
  Plant response rating, Waterhemp: 100
[12]; [21]
  Waterhemp plant response rating: 100
[13]; [16]
  Morningglory plant response rating (0 to 100 scale): 100
[13]; [17]
  Morningglory plant response rating: 100
[14]; [18]
  Ragweed plant response rating: 75
[14]; [19]
  Ragweed plant response rating: 95
[14]; [20]
  Plant response rating, Ragweed: 95
[14]; [21]
  Ragweed plant response rating: 98
[15]; [18]
  Foxtail, Giant plant response rating: 100
[15]; [20]
  Plant response rating, Foxtail, Giant: 100
[15]; [21]
  Foxtail, Giant plant response rating: 100
